Literature values in Sander's compilation of Henry's law constants (doi:10.1021/je049693f).
Where “and” joins values, the source holds several entries; their conditions need not be identical. Identical values can stand only once.

Experiment: Henry solubility constant Hcp at 298.15 K (mol/(m3 Pa))
Details: reference: Shen and Wania (2005); cited value
For `ClC1=C(Cl)[C@]2(Cl)[C@@H]3[C@@H]4C[C@@H]([C@H]5O[C@@H]45)[C@@H]3[C@@]1(Cl)C2(Cl)Cl` [dieldrin], the “Henry solubility constant Hcp” value is listed as 1 and 0.91.
In the case of `ClC1=C(Cl)[C@]2(Cl)[C@@H]3[C@H]4C[C@H]([C@@H]5O[C@H]45)[C@@H]3[C@@]1(Cl)C2(Cl)Cl` [endrin], the “Henry solubility constant Hcp” value is given as 1.6 and 0.91.
In the case of `ClC1=C(Cl)[C@]2(Cl)[C@@H]3[C@@H](Cl)[C@@H](Cl)C[C@@H]3[C@@]1(Cl)C2(Cl)Cl` [cis-chlordane], the “Henry solubility constant Hcp” value is given as 0.17 and 0.18.
In the case of `ClC1=C(Cl)C2(Cl)C3C(Cl)C=CC3C1(Cl)C2(Cl)Cl` (stereo not given) [heptachlor], the “Henry solubility constant Hcp” value is given as 0.033 and 0.026.
For `Clc1ccc(C(c2ccc(Cl)cc2)C(Cl)Cl)cc1` [1,1-dichloro-2,2-bis-(4-chlorophenyl)-ethane], the “Henry solubility constant Hcp” value is given as 1.5 and 2.
In the case of `ClC(Cl)=C(c1ccc(Cl)cc1)c1ccc(Cl)cc1` [1,1-dichloro-2,2-bis-(4-chlorophenyl)-ethene], the “Henry solubility constant Hcp” value is listed as 0.24.
For `ClC1=C(Cl)[C@]2(Cl)[C@H]3[C@H](Cl)[C@@H](Cl)C[C@H]3[C@@]1(Cl)C2(Cl)Cl` [trans-chlordane], the “Henry solubility constant Hcp” value is given as 0.17 and 0.15.
For `ClC1=C(Cl)C2(Cl)C3C4OC4C(Cl)C3C1(Cl)C2(Cl)Cl` (stereo not given) [heptachlorepoxide], the “Henry solubility constant Hcp” value is listed as 0.48 and 0.59.
For `Clc1ccc(C(c2ccc(Cl)cc2)C(Cl)(Cl)Cl)cc1` [1,1,1-trichloro-2,2-bis-(4-chlorophenyl)-ethane], the “Henry solubility constant Hcp” value is given as 0.91.
In the case of `ClC1=C(Cl)[C@]2(Cl)[C@H]3[C@H]([C@@H]4C=C[C@H]3C4)[C@@]1(Cl)C2(Cl)Cl` [aldrin], the “Henry solubility constant Hcp” value is listed as 0.067 and 0.043.
